Measurements: paper PMC5382891 (Scientific Reports, 2017)
Read-outs that look alike come from different tables or passages of the source. Ends that are not written are not given here.

Tests used:
[1] = molecular target: T1, human recombinant NOP receptor (Homo sapiens, UniProt P41146); assay: cell-based; type: cell-based
T1 construct: expressed in transfected cells

mouse vas deferens = assay: electrically stimulated mouse vas deferens bioassay; conditions: Table 2; for mVD Emax ± SEM: percent of the control twitch, mean ± SEM of at least 4 separate experiments, footnote a: concentration response curve incomplete due to low potency
Procedure: The experiments were performed on the mouse vas deferens (mVD). The tissues were taken from male CD-1 mice 16–18 g (Harlan, Ud, Italy). Mice were housed in 425 × 266 × 155 mm cages (Techniplast, Mi, Italy), 8 per cage, all under standard conditions (22 °C, 55% humidity, 12 h light/dark cycle, light on at 7:00 h), with food for mice (4RF, Mucedola, Mi, Italy) and water ad libitum. A mouse red house (Tecniplast, Va, Italy) and nesting materials were present in each cage for mice. The day of the experiment the animals were sacrificed with CO2 overdose. The experimental protocol was approved by the Ethical Committee for the Use of Laboratory Animals of the University of Ferrara and by the Italian Ministry of Health (authorization number 9927, 19/04/2013). The animals were treated in accordance with the European Communities Council directives (2010/63/EU) and national regulations (D.L. 26/2014). Bioassay experiments were performed as previously described. The tissues were suspended in 5 ml organ bath containing Krebs solution (composition in mM: NaCl 118.5, KCl 4.7, KH2PO4 1.2, NaHCO3 25, CaCl2 2.5, glucose 10). The Krebs solution was oxygenated with 95% O2 and 5% CO2. The temperature was set at 33 °C. At resting tension 0.3 g was applied to the mVD. […] The electrically evoked contractions were measured isotonically by means of Basile strain gauge transducers (Basile 7006; srl Ugo Basile, Varese, Italy) and recorder with a computer – based acquisition system (Power Lab 8, ADInstruments, Colorado Springs, USA). […]
The pharmacological terminology adopted in this paper is consistent with IUPHAR recommendations. All data are expressed as the mean ± standard error of the mean (SEM) of n experiments. […] In calcium mobilization experiments, maximum change in fluorescence, expressed as percent over the baseline fluorescence, was used to determine agonist response. Electrically stimulated tissues data are expressed as % of the control twitch induced by electrical field stimulation. […]

T1 sequence (P41146 whole entry): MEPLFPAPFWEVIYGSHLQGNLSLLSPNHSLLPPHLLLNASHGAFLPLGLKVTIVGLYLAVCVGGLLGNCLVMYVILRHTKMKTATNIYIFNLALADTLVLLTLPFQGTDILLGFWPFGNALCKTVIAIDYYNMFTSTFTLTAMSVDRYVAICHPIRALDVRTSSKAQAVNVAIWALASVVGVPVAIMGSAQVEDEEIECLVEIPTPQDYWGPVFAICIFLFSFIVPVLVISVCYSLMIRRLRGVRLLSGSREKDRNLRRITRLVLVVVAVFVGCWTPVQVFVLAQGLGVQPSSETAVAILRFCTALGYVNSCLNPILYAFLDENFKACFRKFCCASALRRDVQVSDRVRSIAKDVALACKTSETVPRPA

FGGFTGARKSAR-NH2 [compound 10, N/OFQ(1-12)-NH2] [listing 1 of 2 here]
EC50 ([1]; Ca2+ mobilization pEC50 (CL95%)): 0.2 nM

FGGFTGARKSAR-NH2 [compound 10, N/OFQ(1-12)-NH2] [listing 2 of 2 here]
Emax ([1]; CHO, read-out: Ca2+ mobilization Emax ± SEM, SEM): 204 ± 16%

N/OFQ(1-11)-NH2 (FGGFTGARKSA-NH2; UniProt Q13519 130-140, looked up, fragment) [compound 12]
mVD Emax ± SEM (mouse vas deferens; SEM): 65 ± 5%^a
Ca2+ mobilization Emax ± SEM ([1]; SEM): 182 ± 34%

N/OFQ(2-12)-NH2 [compound 14]
mVD pEC50 (CL95%) (mouse vas deferens; electrically stimulated mouse vas deferens, Krebs solution, 33 °C, cumulative concentration response curves, mean of at least 4 separate experiments, CL95% in brackets, * P < 0.05 versus N/OFQ(1-13)-NH2): inactive
mVD Emax ± SEM (mouse vas deferens): inactive
Ca2+ mobilization Emax ± SEM [1]: Inactive
Ca2+ mobilization pEC50 (CL95%) [1]: Inactive

compound 15: heterodimeric derivative N/OFQ(1-12)-N/OFQ(2-12), 2,2′-disulfanediyldiethanamine spacer (chain 1 FGGFTGARKSAR; chain 2 GGFTGARKSAR)
Ca2+ mobilization pEC50 (CL95%) [1]: 9.49 (9.07–9.91)
